{"source": "patent US5721207A", "about": "“Method for treatment of pain” (Innapharma, Inc., priority 1995, dated 1998)", "key": {"[1]": {"test_system": "rat", "description": "Intrathecal catheters were surgically implanted in the rats after application of anesthetic (Nembutal, 30 mg/kg, intraperitoneal) 5-7 days prior to the test procedure. The 5-7 day period prior to testing allowed for full recovery from the surgical procedures. […] Each catheter was anchored to the skull with cyanoacrylate adhesive, and the skull was closed with wound clips. The free end of each catheter was heat annealed; when compositions were to be injected via the intrathecal route each composition was introduced therein using a Hamilton needle inserted into the sealed catheter.\nPain sensitivity was assessed using a standard analgesiometric hot plate test (Woolfe and MacDonald (1944) J. Pharmacol. Exp. Ther. 80:300). The hot plate response was determined by placing a rat on a 55° C. copper hot plate enclosed in a plexiglass cylinder.\nBecause of the technical demands of these experiments, no more than 8-9 rats were tested on a given day. Sufficient animals were studied to obtain 10-11 evaluable rats per test condition. On the study day, animals were tested for baseline hot plate responses, and then received bolus injections of test analgesic or physiological saline (control). Hot plate responses were assessed again at 15 min, 30 min, 1 hr, 3 hr, 6 hr and 24 hr after intrathecal injection of test compound or vehicle control.\nNinety-six (96) rats, ranging in weight from 320 g to 420 g, were used in this study. Catheters were implanted and recovery was allowed for as described hereinabove. […] Drug or saline vehicle doses were administered using Hamilton needles inserted into the catheters, with a dose volumes of 37.5 μL/kg followed by a 10 μL saline catheter wash-out. Baseline (pre-drug) and responses at 15 min, 30 min, 1 hr, 3 hr, 6 hr and 24 hr after drug or vehicle injection were determined."}, "[2]": {"test_system": "rat", "test": "Rat hot plate test, five consecutive daily intrathecal doses of elcatonin (Example 11)", "assay_type": "in vivo", "details": "4.4 IU/kg intrathecal, five consecutive daily doses (FIG. 7)", "method": "Intrathecal catheters were implanted in rats as described hereinabove, and a 7-10 day period thereafter allowed for full recovery from the surgical procedures.\nEighteen rats were assigned to three treatment groups of six rats per group. The study is conducted in two treatment phases at one week intervals. Treatment Group I rats receive no treatment. Group II rats receive five consecutive daily intrathecal doses of sterile physiological saline (vehicle control).\nFor each treatment, hot plate latencies are determined as described in Example 5 herein above at 0 minutes (predose, baseline), 1 hour, 3 hours, and 24 hours following injection on the first, third, and fifth study days."}, "[3]": {"details": "intrathecal, 30 min post-injection"}}, "note": "Where two headings read alike, the source gives them in different places."}
{"substance": "[Des-Cys^1,ASU^7 ]-Calcitonin, Eel [Elcatonin]", "values": [{"measurement": "Hot Plate Latency (Mean ± SEM)", "setting": "[1]; 2.4 IU/kg (0.39 μg/kg, 0.12 nmol/kg) intrathecal single, 6 hr", "result": 12.1, "unit": "s"}, {"measurement": "Hot Plate Latency (Mean ± SEM)", "setting": "[1]; 2.4 IU/kg (0.39 μg/kg, 0.12 nmol/kg) intrathecal single, 24 hr", "result": "10.8 ± 0.7", "unit": "s"}, {"measurement": "response at the lowest dose", "setting": "[1]; 2.4 IU/kg or 0.39 μg/kg intrathecal", "result": "slightly smaller response"}, {"measurement": "differences in hot plate latencies between doses", "setting": "[1]; 3.6-6.0 IU/kg intrathecal", "result": "no apparent differences in hot plate latencies"}, {"measurement": "Hot Plate Latency (Mean ± SEM)", "setting": "[1]; 3.6 IU/kg (0.58 μg/kg, 0.18 nmol/kg) intrathecal single, 0 hr (baseline)", "result": "12.92 ± 1.4", "unit": "s"}, {"measurement": "Hot Plate Latency (Mean ± SEM)", "setting": "[1]; 3.6 IU/kg (0.58 μg/kg, 0.18 nmol/kg) intrathecal single, 0.25 hr", "result": "21.04 ± 2.22", "unit": "s"}, {"measurement": "Hot Plate Latency (Mean ± SEM)", "setting": "[1]; 3.6 IU/kg (0.58 μg/kg, 0.18 nmol/kg) intrathecal single, 0.5 hr", "result": "26.03 ± 3.08", "unit": "s"}, {"measurement": "Hot Plate Latency (Mean ± SEM)", "setting": "[1]; 3.6 IU/kg (0.58 μg/kg, 0.18 nmol/kg) intrathecal single, 1 hr", "result": "26.08 ± 3.69", "unit": "s"}, {"measurement": "Hot Plate Latency (Mean ± SEM)", "setting": "[1]; 3.6 IU/kg (0.58 μg/kg, 0.18 nmol/kg) intrathecal single, 3 hr", "result": "23.14 ± 3.05", "unit": "s"}, {"measurement": "Hot Plate Latency (Mean ± SEM)", "setting": "[1]; 3.6 IU/kg (0.58 μg/kg, 0.18 nmol/kg) intrathecal single, 6 hr", "result": 20.37, "unit": "s"}, {"measurement": "Hot Plate Latency (Mean ± SEM)", "setting": "[1]; 3.6 IU/kg (0.58 μg/kg, 0.18 nmol/kg) intrathecal single, 24 hr", "result": "15.79 ± 2.40", "unit": "s"}, {"measurement": "Hot Plate Latency (Mean ± SEM)", "setting": "[1]; 4.4 IU/kg ([…], 0.22 nmol/kg) intrathecal single, 0 hr (baseline)", "result": "13.68 ± 1.10", "unit": "s"}, {"measurement": "Hot Plate Latency (Mean ± SEM)", "setting": "[1]; 4.4 IU/kg ([…], 0.22 nmol/kg) intrathecal single, 0.25 hr", "result": "21.89 ± 3.12", "unit": "s"}, {"measurement": "Hot Plate Latency (Mean ± SEM)", "setting": "[1]; 4.4 IU/kg ([…], 0.22 nmol/kg) intrathecal single, 0.5 hr", "result": "26.03 ± 3.36", "unit": "s"}, {"measurement": "Hot Plate Latency (Mean ± SEM)", "setting": "[1]; 4.4 IU/kg ([…], 0.22 nmol/kg) intrathecal single, 1 hr", "result": "26.20 ± 2.37", "unit": "s"}, {"measurement": "Hot Plate Latency (Mean ± SEM)", "setting": "[1]; 4.4 IU/kg ([…], 0.22 nmol/kg) intrathecal single, 3 hr", "result": "21.11 ± 2.18", "unit": "s"}, {"measurement": "Hot Plate Latency (Mean ± SEM)", "setting": "[1]; 4.4 IU/kg ([…], 0.22 nmol/kg) intrathecal single, 6 hr", "result": 20.02, "unit": "s"}, {"measurement": "Hot Plate Latency (Mean ± SEM)", "setting": "[1]; 4.4 IU/kg ([…], 0.22 nmol/kg) intrathecal single, 24 hr", "result": "11.78 ± 1.75", "unit": "s"}, {"measurement": "Hot Plate Latency (Mean ± SEM)", "setting": "[1]; 5.2 IU/kg (0.84 μg/kg, 0.26 nmol/kg) intrathecal single, 0 hr (baseline)", "result": "13.41 ± 0.92", "unit": "s"}, {"measurement": "Hot Plate Latency (Mean ± SEM)", "setting": "[1]; 5.2 IU/kg (0.84 μg/kg, 0.26 nmol/kg) intrathecal single, 0.25 hr", "result": "27.89 ± 3.10", "unit": "s"}, {"measurement": "Hot Plate Latency (Mean ± SEM)", "setting": "[1]; 5.2 IU/kg (0.84 μg/kg, 0.26 nmol/kg) intrathecal single, 0.5 hr", "result": "31.55 ± 4.17", "unit": "s"}, {"measurement": "Hot Plate Latency (Mean ± SEM)", "setting": "[1]; 5.2 IU/kg (0.84 μg/kg, 0.26 nmol/kg) intrathecal single, 1 hr", "result": "25.82 ± 3.79", "unit": "s"}, {"measurement": "Hot Plate Latency (Mean ± SEM)", "setting": "[1]; 5.2 IU/kg (0.84 μg/kg, 0.26 nmol/kg) intrathecal single, 3 hr", "result": "28.81 ± 3.41", "unit": "s"}, {"measurement": "Hot Plate Latency (Mean ± SEM)", "setting": "[1]; 5.2 IU/kg (0.84 μg/kg, 0.26 nmol/kg) intrathecal single, 6 hr", "result": 22.97, "unit": "s"}, {"measurement": "Hot Plate Latency (Mean ± SEM)", "setting": "[1]; 5.2 IU/kg (0.84 μg/kg, 0.26 nmol/kg) intrathecal single, 24 hr", "result": "12.36 ± 1.69", "unit": "s"}, {"measurement": "Hot Plate Latency (Mean ± SEM)", "setting": "[1]; 6.0 IU/kg (0.97 μg/kg, 0.30 nmol/kg) intrathecal single, 0 hr (baseline)", "result": "11.38 ± 0.89", "unit": "s"}, {"measurement": "Hot Plate Latency (Mean ± SEM)", "setting": "[1]; 6.0 IU/kg (0.97 μg/kg, 0.30 nmol/kg) intrathecal single, 0.25 hr", "result": "25.22 ± 4.13", "unit": "s"}, {"measurement": "Hot Plate Latency (Mean ± SEM)", "setting": "[1]; 6.0 IU/kg (0.97 μg/kg, 0.30 nmol/kg) intrathecal single, 0.5 hr", "result": "28.91 ± 3.40", "unit": "s"}, {"measurement": "Hot Plate Latency (Mean ± SEM)", "setting": "[1]; 6.0 IU/kg (0.97 μg/kg, 0.30 nmol/kg) intrathecal single, 1 hr", "result": "24.48 ± 3.35", "unit": "s"}, {"measurement": "Hot Plate Latency (Mean ± SEM)", "setting": "[1]; 6.0 IU/kg (0.97 μg/kg, 0.30 nmol/kg) intrathecal single, 3 hr", "result": "26.60 ± 3.87", "unit": "s"}, {"measurement": "Hot Plate Latency (Mean ± SEM)", "setting": "[1]; 6.0 IU/kg (0.97 μg/kg, 0.30 nmol/kg) intrathecal single, 6 hr", "result": 24.69, "unit": "s"}, {"measurement": "Hot Plate Latency (Mean ± SEM)", "setting": "[1]; 6.0 IU/kg (0.97 μg/kg, 0.30 nmol/kg) intrathecal single, 24 hr", "result": "11.17 ± 1.80", "unit": "s"}, {"measurement": "hot plate analgesia compared with morphine sulfate (49.42-164.73 nmol/kg)", "setting": "[1]; 6 hours post-injection, all tested doses of elcatonin (0.12-0.30 nmol/kg)", "result": "more potent hot plate analgesia than all tested doses of morphine sulfate"}, {"measurement": "duration of analgesia, elcatonin compared with morphine", "setting": "[1]; intrathecal", "result": "generally longer duration of analgesic activity than morphine"}, {"measurement": "molar concentration producing potent analgesia, lower than morphine sulfate by", "setting": "[1]; intrathecal", "result": "approximately 1000 fold"}, {"measurement": "dose approximately equivalent to 164.73 nmol/kg morphine sulfate (125.0 μg/kg)", "setting": "[1]; [3]", "result": "~0.18", "unit": "nmol/kg"}, {"measurement": "dose producing a hot plate latency similar to 98.84 nmol/kg morphine sulfate (75.0 μg/kg)", "setting": "[1]; [3]", "result": "~0.12", "unit": "nmol/kg"}, {"measurement": "onset of antinociception/analgesia post-injection", "setting": "[1]; intrathecal, all tested doses", "result": "≤ 15", "unit": "min"}, {"measurement": "time of peak antinociception", "setting": "[1]; intrathecal, all tested doses (2.4-6.0 IU/kg)", "result": "30 to 60", "unit": "min"}, {"measurement": "analgesia compared to intrathecal morphine", "setting": "[1]; rat hot plate, intrathecal", "result": "dramatically improved analgesia"}, {"measurement": "hot plate latency", "setting": "[2]", "result": "hot plate latency is increased"}, {"measurement": "hot plate latency at 24 hr after each successive injection", "setting": "[2]", "result": "greater hot plate latency, and a cumulative analgesic effect over time"}]}
